Where a name gives a salt, the structure may show the parent alone.
Key:
[1] = tested on: Corn; test: Pre-emergence herbicide test, corn; format: in vivo, Zea mays
Procedure: (§1) In this evaluation, each compound to be tested was dissolved in a 1:1 mixture of acetone and ethanol containing a small amount of Toximul R and Toximul S (each a sulfonate/nonionic blend produced by Stepan Chemical Company, Northfield, Illinois). The solution was then diluted with deionized water to a composition of the following concentrations, by weight: Plant species used as indicators of herbicidal activity were planted in galvanized pans (flats) 31.5 cm. long, 21.5 cm. wide, and 8.0 cm. deep. The bottoms of the flats had holes to facilitate drainage. The soil used was a 1:1 ratio by volume of masonry sand and shredded top soil. Seeds of seven indicator species were planted in rows perpendicular to the long axis of the flat, one species per row, and covered with 0.5 to 1.0 cm. of sterilized soil. Indicator species and approximate number of seeds planted were as follows: Flats that were to receive preemergence treatments were planted one day prior to, or on the same day treatments were applied. Flats that were to receive postemergence treatments were planted 9 days prior to treatment and placed in a growth chamber until the day of treatment. In the growth chamber, flats received 12 to 18 hours of light per day and were subject to temperatures of 75° to 85° F. The formulated test compound was applied uniformly to the indicator species with a modified DeVilbiss atomizer using air pressure of 3 to 5 psi. Each flat received 12.5 ml. of spray solution which was equal to 200 gallons/acre total spray volume. Plants were maintained in a greenhouse after treatment. Herbicidal effects of chemicals were evaluated by two injury rating systems 18 days after preemergence applications and 14 days after postemergence applications. The degree of plant injury was based on a 1 to 5 scale and a single numerical rating was assigned to each test species as follows: […]

[2] = tested on: Zinnia; test: Post-emergence herbicide test, zinnia; format: in vivo, Zinnia elegans
Procedure: as §1

[3] = tested on: Corn; test: Post-emergence herbicide test, corn; format: in vivo, Zea mays
Procedure: as §1

[4] = tested on: Mexican bean beetle; test: Mexican bean beetle test; format: in vivo, Epilachna varivestis; conditions: 1000 ppm, 4 days; further: ranges in brackets are in %
Procedure: (§2) In this evaluation, each compound to be tested was dissolved in a 1:1 mixture of acetone and ethanol containing a small amount of Toximul R and Toximul S (each a sulfonate/nonionic blend produced by Stephan Chemical Company, Northfield, Ill.). The solution was then diluted with distilled water to a concentration of 1000 ppm of test compound.
This test was conducted with second instar larvae of Epilachna varivestis Mulsant, order Coleoptera, family Coccinellidae. Larvae for the test, of uniform size and not molting, were picked by hand from flats of Bountiful snap beans on which they were grown and were placed in 100×20 mm plastic petri dishes for testing. Five larvae were used per replicate.
Two 4- to 6-day-old Bountiful green bean primry leaves (approximately 6 sq. in. of leaf surface) were used for each replicate. Two replicates were run per compound.
[…] […] The nozzle of the atomizer was held 12 to 18 inches from the leaves and was supplied with 5-6 psi air pressure. The atomizer was rinsed with acetone after each compound was sprayed. The plants were allowed to dry. The leaves were then cut from the plants and placed in the petri dishes containing the bean beetle larvae. A small wad of wet cellucotton was added to each dish to help prevent the leaves from wilting.
After 4 days, a mortality count was made and the amount of feeding was noted. Moribund larvae were counted as dead.

[5] = tested on: Zinnia; test: Pre-emergence herbicide test, zinnia; format: in vivo, Zinnia elegans
Procedure: as §1

[6] = tested on: Foxtail; test: Pre-emergence herbicide test, foxtail; format: in vivo, Setaria italica
Procedure: as §1

[7] = tested on: Large Crabgrass; test: Pre-emergence herbicide test, large crabgrass; format: in vivo, Digitaria sanguinalis
Procedure: as §1

[8] = tested on: Morning-glory; test: Pre-emergence herbicide test, morningglory; format: in vivo, Ipomoea purpurea
Procedure: as §1

[9] = tested on: two-spotted spider mite; test: Two-spotted spider mite test; format: in vivo, Tetranychus urticae; conditions: 1000 ppm, 4 days; further: ranges in brackets are in %
Procedure: as §2, with “compound. Lesser concentration formulations were made by diluting a portion of the 1000 ppm solution with distilled water containing 225 mg. of Toximul R and 125 mg. of Toximul S per liter.” for “compound.”
This test was conducted with nymphs and adults of Tetranychus urticae (Koch), Order Acarina, Family Tetranychidae.
This test was run using blue hubbard squash plants which were grown in vermiculite (insulation grade No. 1) in 5 oz. plastic Dixie cups. One cotyledon is removed from each plant to remain in the cups. On retests two plants were left in each cup and on regular initial tests one plant was left in each cup. Each cotyledon is infested by placing a mite infested trifoliate bean leaf on if. Infected plants in cups were held for one day, then sprayed to wetting with formulations containing 1000 ppm of the test compound, using the DeVilbiss atomizer with 5-6 psi air pressure. Retests were run at 100 ppm. Tests were read four days after treatment. Two unsprayed but infested plants were held as a control. Two infested plants were sprayed with a formulation containing 750 ppm of galecron [N'-(4-chloro-o-tolyl)-N,N-dimethylformamidine monohydrochloride] as a reference standard.

[10] = tested on: Velvetleaf; test: Pre-emergence herbicide test, velvetleaf; format: in vivo, Abutilon theophrasti
Procedure: as §1

[11] = tested on: Morning-glory; test: Post-emergence herbicide test, morningglory; format: in vivo, Ipomoea purpurea
Procedure: as §1

[12] = tested on: Velvetleaf; test: Post-emergence herbicide test, velvetleaf; format: in vivo, Abutilon theophrasti
Procedure: as §1

[13] = tested on: Pigweed; test: Pre-emergence herbicide test, pigweed; format: in vivo, Amaranthus retroflexus
Procedure: as §1

For `O=[N+]([O-])c1cc(C(F)(F)F)cc2c1NC(O)(C(F)(F)C(F)F)N2O` (stereo not drawn) [Example 12, 1,2-Dihydroxy-2-(1,1,2,2-Tetrafluoroethyl)-4-Nitro-6-(Trifluoromethyl)Benzimidazoline], the plant injury rating ([1]; 1/2 lb/A) was 1 (no injury), the plant injury rating ([1]; 1 lb/A) was 1 (no injury) and the plant injury rating ([1]; 2 lb/A) was 1 (no injury). For the same compound, the plant injury rating ([1]; 8 lb/A) was 1 (no injury), the plant injury rating ([2]; 1/4 lb/A) was 3B and the plant injury rating ([2]; 1/8 lb/A) was 2B. It also gave a plant injury rating ([2]; 1 lb/A) of 5D, a plant injury rating ([2]; 2 lb/A) of 5D and a plant injury rating ([2]; 8 lb/A) of 4BS. For the same compound, the plant injury rating ([3]; 1/4 lb/A) was 1 (no injury), the plant injury rating ([3]; 1/8 lb/A) was 1 (no injury) and the plant injury rating ([3]; 1 lb/A) was 1 (no injury). For the same compound, the plant injury rating ([3]; 2 lb/A) was 2B, the plant injury rating ([3]; 8 lb/A) was 1 (no injury) and the “Mexican Bean Beetle Stom. (mortality rating)” value [4] was 3 (100). For the same compound, the plant injury rating ([5]; 1/2 lb/A) was 1 (no injury), the plant injury rating ([5]; 1 lb/A) was 1 (no injury) and the plant injury rating ([5]; 2 lb/A) was 1 (no injury). The plant injury rating ([5]; 8 lb/A) was 4RS, the plant injury rating ([6]; 1/2 lb/A) was 1 (no injury) and the plant injury rating ([6]; 1 lb/A) was 1 (no injury). For the same compound, the plant injury rating ([6]; 2 lb/A) was 1 (no injury), the plant injury rating ([6]; 8 lb/A) was 2S and the plant injury rating ([7]; 1/2 lb/A) was 1 (no injury). For the same compound, the plant injury rating ([7]; 1 lb/A) was 2S, the plant injury rating ([7]; 2 lb/A) was 4SB and the plant injury rating ([7]; 8 lb/A) was 4RS. For the same compound, the plant injury rating ([8]; 1/2 lb/A) was 1 (no injury), the plant injury rating ([8]; 1 lb/A) was 1 (no injury) and the plant injury rating ([8]; 2 lb/A) was 1 (no injury). For the same compound, the plant injury rating ([8]; 8 lb/A) was 3BS, the “2-Sp. Spider Mite Cont. (mortality rating)” value [9] was 3 (100) and the plant injury rating ([10]; 1/2 lb/A) was 1 (no injury). For the same compound, the plant injury rating ([10]; 1 lb/A) was 1 (no injury), the plant injury rating ([10]; 2 lb/A) was 1 (no injury) and the plant injury rating ([10]; 8 lb/A) was 3BS. The plant injury rating ([11]; 1/4 lb/A) was 1 (no injury), the plant injury rating ([11]; 1/8 lb/A) was 1 (no injury) and the plant injury rating ([11]; 1 lb/A) was 3BS. For the same compound, the plant injury rating ([11]; 2 lb/A) was 3BS, the plant injury rating ([11]; 8 lb/A) was 2B and the plant injury rating ([12]; 1/4 lb/A) was 2B. The plant injury rating ([12]; 1/8 lb/A) was 2SB, the plant injury rating ([12]; 1 lb/A) was 4BS and the plant injury rating ([12]; 2 lb/A) was 4BS. The plant injury rating ([12]; 8 lb/A) was 4BS, the plant injury rating ([13]; 1/2 lb/A) was 1 (no injury) and the plant injury rating ([13]; 1 lb/A) was 3S. The plant injury rating ([13]; 2 lb/A) was 4S and the plant injury rating ([13]; 8 lb/A) was 5N.

In the case of `O=[N+]([O-])c1cc(Cl)cc2c1NC(O)(C(F)F)N2` (stereo not drawn) [Example 5, 2-Hydroxy-2-(Difluoromethyl)-4-Nitro-6-Chlorobenzimidazoline, Calcium Salt], the plant injury rating ([1]; 8 lb/A) is reported as 1 (no injury), the plant injury rating ([2]; 1 lb/A) is reported as 3BS and the plant injury rating ([2]; 2 lb/A) is reported as 3BS. For the same compound, the plant injury rating ([2]; 4 lb/A) was 4BS, the plant injury rating ([2]; 8 lb/A) was 5D and the plant injury rating ([3]; 1 lb/A) was 1 (no injury). It also gave a plant injury rating ([3]; 2 lb/A) of 2B, a plant injury rating ([3]; 4 lb/A) of 4BS and a plant injury rating ([3]; 8 lb/A) of 5D. The “Mexican Bean Beetle Stom. (mortality rating)” value [4] was 3 (100), the plant injury rating ([5]; 8 lb/A) was 4R and the plant injury rating ([6]; 8 lb/A) was 3R. The plant injury rating ([7]; 8 lb/A) was 3RS, the plant injury rating ([8]; 8 lb/A) was 3RS and the “2-Sp. Spider Mite Cont. (mortality rating)” value [9] was 3 (100). It also gave a plant injury rating ([10]; 8 lb/A) of 3RS, a plant injury rating ([11]; 1 lb/A) of 2BS and a plant injury rating ([11]; 2 lb/A) of 2BS. For the same compound, the plant injury rating ([11]; 4 lb/A) was 3BS, the plant injury rating ([11]; 8 lb/A) was 4BS and the plant injury rating ([12]; 1 lb/A) was 3BS. For the same compound, the plant injury rating ([12]; 2 lb/A) was 3BS, the plant injury rating ([12]; 4 lb/A) was 4BS and the plant injury rating ([12]; 8 lb/A) was 5D. For the same compound, the plant injury rating ([13]; 8 lb/A) was 2S.
